Entries after “also recorded” stand apart in the source; their conditions may differ.
What was measured:
[1] = tested on: CT5.3 hTERT colon CAFs; assay: AFM spheroid stiffness, CT5.3 hTERT colon CAFs; format: cell-based, human; details: 1 μM, 48 h
Source text: It is well established that an increased tumor and ECM stiffness is associated with a negative prognosis as it promotes tumor growth, progression, therapy resistance, immunosuppression and metastasis. Stiffness is chiefly regulated by the action of the CAFs in the TME. Stiffness modulation is, therefore, a fitting read-out of activity in a screen for CAF modulators. To assess stiffness modulation, the stiffness of spheroids of CAF cells treated with test compounds was interrogated using atomic force microscopy (AFM) indentation and compared with untreated cells. AFM measurement of the stiffness (elasticity) of cells and spheroids is a technique well-known to those skilled in the art. AFM measures the force required to create a given deflection, this read-out is also known as the Young's modulus. AFM is widely used in biology and cancer research: altered physicochemical properties of live cells serve as a read-out of altered complex physiological processes.
U-shaped, 384-well ULA plates (cat. no. MS-9384UZ, S-bio) were seeded with a suspension of cell-specific culture media with cells. Cells were allowed to form spheroids for an appropriate time under treatment conditions before use in experiments. Cell culture dishes (cat. no. 734-2814, VWR) were filled with collagen gel and placed at 37° C. for an appropriate time to allow solidification. […]

[2] = tested on: primary human atrial fibroblasts; assay: AFM spheroid stiffness, primary human atrial fibroblasts; format: cell-based; details: 1 μM, 48 h
Method: Selectivity for CAFs with respect to normal fibroblasts and other cell types was assessed by performing an identical experiment with normal fibroblasts and other cell types, where compounds were considered selective for CAFs if they only modulate CAF stiffness.
U-shaped, 384-well ULA plates (cat. no. MS-9384UZ, S-bio) were seeded with a suspension of cell-specific culture media with cells. Cells were allowed to form spheroids for an appropriate time under treatment conditions before use in experiments. Cell culture dishes (cat. no. 734-2814, VWR) were filled with collagen gel and placed at 37° C. for an appropriate time to allow solidification. For each condition, spheroids were pooled in one cell culture dish. The medium was removed (stored at 37° C.) to promote attachment of the bottom of each spheroid to the collagen gel. The cell culture dishes were incubated at 37° C. After the incubation period, the stored medium was carefully (prevent detachment of spheroids) added to the dishes.
Mechanical measurements were performed using an atomic force microscope. To indent the spheroids an in-house made colloidal probe was used. Force curves were collected using an appropriate setpoint and probe speed (depending on the stiffness of the spheroids). On each spheroid multiple force curves were collected. Collected curves were then processed using the JPK DP software. Young's modulus was extracted from the force curves. All experiments were performed in biological triplicate.
To generate 3D cultures mimicking the complexity and pathophysiology of in vivo tumors, spheroids were used (cfr. point 4). Spheroids are considered to better simulate cellular heterogeneity, nutrient and oxygen gradients, cell-cell interactions, cell-matrix interactions, gene expression profiles, stromal interactions, therapeutic responses, multicellular resistance, drug penetration and anti-apoptotic signaling.

[3] = 4T1-based intraductal model: tolerability; format: in vivo; details: oral in Medigel, 100 mg/kg three times per day; weekly evaluation across 6 w study period
Method: Compounds were dissolved in DMSO. The compound solution was subsequently aspired using a 1 mL syringe and an 18 G (pink) needle, including additional air to help eject all the solution and avoid retention of compound in the dead volume. The solution was injected into a Medigel in five parts at five different sites and a volume of gel was aspired and reinjected into the cup at the last site to rinse the dead volume of the syringe. The medication was shaken vigorously afterwards and visually examined for even dispersion of compound. Mice received freshly prepared cups with medication every 48 h and gels were placed in gel cup holders to avoid contact with bedding material and absorbent shavings in the mouse cage. The amount of Medigel given to the mice was weekly determined and depended on the mean mouse body weight and consumption. The dosing level was kept constant at 100 mg/kg three times per day.
Body weight and body temperature were measured every day during the first week p.i., and once a week during the following 5 weeks (i.e. up to 6 w p.i.) using a digital weighing scale and a rectal temperature probe, respectively. As a measurement of primary tumor growth, primary tumor volumes were weekly monitored using a digital caliper and 4T1-luc-derived bioluminescence in primary tumors was monitored at 1, 3 and 6 w p.i. using the IVIS lumina III system (PerkinElmer, Zaventem, Belgium). To perform in vivo imaging, mice were injected with 200 μl D-luciferin suspended in PBS (2 mg/100 μl; Gold Biotechnology, St. Louis, MO) and images were acquired 10 min later under inhalation anesthesia. To perform ex vivo imaging, mice were sedated with a mixture of 100 mg/kg ketamine (Ketamidor, Ecuphar nv/sa, Oostkamp, Belgium) and 10 mg/kg xylazine (Xylazini Hydrochloridum, Val d'HonyVerdifarm, Beringen, Belgium) and subsequently sacrificed through cervical dislocation. Images of bioluminescent signals in isolated primary tumors, spleens and metastases-bearing organs (including axillary lymph nodes, lungs and liver) were quickly acquired using the IVIS system. Primary tumors and spleens were also weighed using a digital weighing scale. Analysis of the in vivo and ex vivo bioluminescent signals was performed using the living image software 4.7.2.

[4] = tested on: 13B2 hTERT, CT5.3 hTERT, HCA2 hTERT, MCF-7/6 and 4T1-Luc cells; assay: 3D CellTiter-Glo Cell Viability Assay (spheroids); format: cell-based; details: 3D spheroids; up to 100 μM; 48 h
Method: The half maximal inhibitory concentration (IC50) of A1 was evaluated using a CellTiter-Glo® 2.0 Cell Viability Assay (cat. no. G9243, Promega) and a CellTiter-Glo® 3D Cell Viability Assay (cat. no. G9681, Promega). 13B2 hTERT cells (2D: 2×10^5, 3D: 8×10^4) were plated in each well of a Nunc™ MicroWell™ 96-Well, Nunclon Delta-Treated, Flat-Bottom Microplate (cat. no. 167008, Thermo Fisher Scientific) for 2D experiments or 96-well ULA plate (cat. no. MS-9096UZ, S-bio) in a volume of 90 μL/well. A1 was serially diluted in the appropriate medium to 10× the final concentrations. For each treatment condition, 10 μL was added to 3 replicate wells (final concentrations ranging from 1-100 μM) and plates were incubated for 48 h.
The CellTiter-Glo Cell Viability Assay was performed according to manufacturer's instructions. Briefly, the plates and the CellTiter-Glo® Reagent were equilibrated to room temperature (RT). The CellTiter-Glo® Reagent was added to each well in a 1:1 (v/v) ratio. For 2D experiments, cell lysis was induced by placing the plates on an orbital shaker for 2 min, followed by stabilization of the luminescent signal for 10 min. […] Afterwards, the luminescence was measured using a Synergy™ HTX Multi-Mode Microplate Reader (BioTek). The IC50 value was determined using the Graphpad Prism software. […]

Row | Compound | spheroid stiffness [1] | spheroid stiffness [2] | Body temperature [3] | Body weight [3] | response of cells cultured as spheroids (viability) [4]
1 | COc1cc(C(=O)/C=C/c2ccc(F)cc2)cc(OC)c1OC [Compound A1, 3-(4-Fluorophenyl)-1-(3,4,5-trimethoxyphenyl)prop2-en-1-one] | decreased | did not alter; also recorded: no effect | no significant variation | no significant variation | no response
2 | COc1cc2oc(-c3ccc(F)cc3)cc(=O)c2c(OC)c1OC [Compound B1, 2-(4-Fluorophenyl)-5,6,7-trimethoxy-4H-chromen-4-one] | decreased | did not alter; also recorded: no effect | no significant variation | no significant variation | no response

Reference: US20260191817A1, “FIBROBLAST MODULATORS IN STROMA-RICH TUMORS” (UNIVERSITEIT GENT, priority 2022, published 2026)
